# Experimental data from patent publication US20110162116A1, “Method For Growing Plants” (priority 2008, published 2011).
# System: Cotton
# Experiment: Total dark respiration and SHAM-sensitive AOX by phase shift fluorescence measurement, cotton leaf sections
# Assay type: in vivo, Gossypium spp.
# Text: Ozone control. Ozone generators (model OP-35-3P, Grupo Interozone, Brazil) were coupled to ozone monitors (model 202, 2B Technologies, Inc. USA; dynamic range of 1.5 ppbv to 100 ppmv of ozone; precision 1.5 ppbv or 2% of the reading) using a ozone monitor—generator interface (Engineering dep. Crops Advance Brazil). […] This was used as the upper limit for phytotron number one. Phytotron number two was set at 30 ppbv average ozone. Phytotron number three was set at 60 ppbv average ozone. Ozone levels of phytotron number two and three were permanently measured at 10 second intervals and averaged per minute. Each ozone monitor fed averaged values over an analog output to an ozone monitor—ozone generator interface. Hysteresis was set at +/−5 ppbv. Ozone levels were monitored close to the inlet of the two internal circulation ventilators. The ozone generators were adapted to accept an external digital signal from the interface.
# Respiration of plant material was tested as follows: Partial oxygen pressure drops due to oxygen consumption as result of dark respiration were measured using phase shift fluorescence measurement. For this, a NeoFox™ Phase Measurement System was used (Fluorometer Bench version using a QBIF600-VIS-NIR laboratory-grade bifurcated optical fiber with FOXY-R-8 cm overcoated fluorescence oxygen needle sensor, Ocean Optics Inc. USA).
# Fluorescence phase shift was expressed as Tau in microseconds (μs) and has an inverse and linear relation with the partial oxygen pressure.
# Salicylhydroxamic acid (SHAM) (99%, Sigma-Aldrich Brasil Ltda. São Paulo, Brazil) was used as an AOX inhibitor. The soluble sodium salicylhydroxamate salt was prepared by titrating SHAM with 0.1 M sodium hydroxide until neural pH. A stock solution ([…]) was prepared containing 300 ml/L ethanol from initial dissolving SHAM (same abbreviation is used for the salicylhydroxamate salt). From the stock solution a 20 mmol/L salicylhydroxamate final test solution was prepared by taking 12.3 ml stock solution and completing till 100 ml with a phosphate buffer solution (pH 7). The final SHAM test solution thus contained 3.7% residual ethanol. For proper control, the comparative test solution was also provided with 3.7 ml of ethanol per 100 ml of phosphate buffer solution (pH 7). To both solutions two drops of wetting agent (Silwet L-77 AG, GE Silicones Inc. USA) were added per 25 ml of test solution.
# Plant material collected was always the first fully grown leaf counting from the apical point downwards or outwards (e.g. for monocotyls). […] Per test, four leafs from four different plants were sampled. Cotton leafs were cut in half along the mid nerve. Using a clipper, 16 leaf sections of equal surface area of 400.9 mm2 each were cut, one from each base half and one from each top half part giving 4 sections per leaf and 16 sections per test. The leaf sections were distributed equally over two sub samples, one with and one without salicylhydroxamate. Using a chirurgical blade, all sections were given 7 parallel cuts (through and through) at approximately 2.5 mm apart over almost the full length of the section to guarantee lateral infiltration of the test solutions and gas exchange.
# Within 10 minutes of plant sampling the sections were cut, initial subsample weight was registered using a high precision laboratory scale and the subsamples were placed in their solutions with and without salicylhydroxamate for 60 minutes in the dark, to guarantee dark adaptation.
# Each sample contained 4 leaves, 4 sections per leaf providing 16 sections, 8 per subsample. In 1 subsample of 8 sections AOX was inhibited, the other subsample served as control. Thereafter each subsample material was tissue dried and stacked using filter paper sections cut with the same clipper to separate individual leaf sections. Each subsample consisted of 9 filter sections and 8 leaf sections. […]
# [1] = plants grown in 0 ppvb O3, transferred to 60 ppvb O3 and transferred back to 0 ppvb O3
# [2] = plants grown in 0 ppvb O3 and transferred to 30 ppvb O3
# [3] = plants grown in 0 ppvb O3 and transferred to 60 ppvb O3
# [4] = plants grown in 60 ppvb O3 and transferred to 0 ppvb O3
structure (smiles),measurement,setting,value
O=[O+][O-] [ozone],time for AOX respiration rate to fully return to base level when the oxidative stress is reduced,"cotton, after exposure to higher ozone levels than in ontogenic phase",≤ 3 days
same,AOX respiration after return to the 0 ppbv ozone ambient (in words),"ontogenic phase in 0 ppbv, time in 60 ppbv ozone ambient, returned to 0 ppbv",returned fully to its initial level
same,AOX component,[1],2.95 arb units
same,TDR excl AOX dTau/t without SHAM,[1],8.87E−06 μs/s
same,TDR incl AOX dTau/t with SHAM,[1],1.18E−05 μs/s
same,AOX component,[2],3.26 arb units
same,TDR excl AOX dTau/t without SHAM,[2],7.51E−06 μs/s
same,TDR incl AOX dTau/t with SHAM,[2],1.08E−05 μs/s
same,AOX component,[3],3.77 arb units
same,TDR excl AOX dTau/t without SHAM,[3],5.75E−06 μs/s
same,TDR incl AOX dTau/t with SHAM,[3],9.52E−06 μs/s
same,AOX component,plants grown in 30 ppvb O3,2.97 arb units
same,TDR excl AOX dTau/t without SHAM,plants grown in 30 ppvb O3,6.96E−06 μs/s
same,TDR incl AOX dTau/t with SHAM,plants grown in 30 ppvb O3,9.93E−06 μs/s
same,AOX component,plants grown in 60 ppvb O3,3.33 arb units
same,TDR excl AOX dTau/t without SHAM,plants grown in 60 ppvb O3,6.03E−06 μs/s
same,TDR incl AOX dTau/t with SHAM,plants grown in 60 ppvb O3,9.36E−06 μs/s
same,AOX component,[4],3.97 arb units
same,TDR excl AOX dTau/t without SHAM,[4],7.13E−06 μs/s
same,TDR incl AOX dTau/t with SHAM,[4],1.11E−05 μs/s
same,AOX respiration during stay in the zero ozone level ambient (in words),"plants grown up in 60 ppbv ozone, placed in zero ozone ambient",did not lower their AOX respiration
